Measurements as given in patent publication US20230050846A1, “TREATMENT OF HEPATIC AND CARDIOVASCULAR DISORDERS” (LIFESEARCH, priority 2019, published 2023).

Legend:
wild-type C57B/L6J mice = test: Femoral artery blood flow in conscious mice; format: in vivo, mouse; details: data not shown
Source text: According to the protocol disclosed in [5], the peptide of formula (I) increased femoral artery blood flow in conscious wild-type C57B/L6J mice in a process that strictly depend on endothelial NO production (data not shown).

C57B/L6J mice fed CDAHFD = test: CDAHFD diet-induced NASH associated hepatic fibrosis mouse model; format: in vivo; details: sc infusion two weeks, 5 mg/kg BW/day
Method: Wild-type C57B/L6J male mice were purchased from Janvier Labs (Le Genest Saint Isle, France). Mice were caged in animal rooms under specific pathogen free conditions at the animal facility of Rangueil (Anexplo platform, US006, Toulouse, France) with a light/dark schedule of 12 h/12 h. At the initiation of the dietary intervention, all animals were 8 weeks old and were fed ad libitum with a normal chow diet (#V1535 R/M-H, Ssniff, Germany). All animal experimental procedures were conducted in accordance with institutional guidelines on animal experimentation approved by the local ethical committee of animal care and are conformed to the guidelines from Directive 2010/63/EU of the European Parliament on the protection of animals used for scientific purposes or the NIH guideline.
8 weeks old mice were fed for 6 week a choline-deficient, L-amino acid-defined, high-fat diet (CDAHFD #A06071302, Research Diet, USA) consisting of 60 kcal % fat and 0.1% methionine by weight. For the 2 last weeks of the 6-week period, a group of mice were implanted with an osmotic pump containing the peptide of formula (I). Briefly, 200 μL osmotic pump were filled with 10 mg/mL of the peptide of formula (I) in PBS and were implanted subcutaneously into the mice according to the manufacturer's instructions (Alzet®, model pump #2002), to insure the peptide of formula (I) release at an estimated rate of 0.5 μL/h, which corresponds to an estimated amount of delivery of 5 mg of the peptide of formula (I) per kilogram of body weight per day (5 mg/kg BW/day). The control group was composed of mice that underwent the same chirurgical procedure used for osmotic pump implantation (sham-operated mice).
Liver histology. […] Fibrosis was assessed by Sirius Red staining. […]
Hepatic hydroxyproline was determined by hydrolizing 80-140 mg liver in a 6N HCl solution, overnight, at 110 degrees Celsius. […] Absorbance was measured at 550 nm and the results are expressed as micrograms of hepatic hydroxyproline per mg tissue.

Ac-RGAGSIREAGGAFGKREQAEEERYFRAQSRE-NH2 [peptide of formula (I), CH3CO-[SEQ ID NO: 1]-NH2]
femoral artery blood flow (wild-type C57B/L6J mice): increased
collagen deposition (Sirius Red staining) (C57B/L6J mice fed CDAHFD; p<0.01 vs sham-operated mice): less collagen deposition
decrease in the concentration of hydroxyproline content per milligram of liver (C57B/L6J mice fed CDAHFD; p<0.05 vs sham-operated mice): more than 35%
CDAHFD diet-induced increase of hepatic fibrosis (C57B/L6J mice fed CDAHFD; vs sham-operated mice): significantly attenuated
